Test results from patent US11352371B2, “Thienopyrimidine derivatives as ACC inhibitors and uses thereof” (Gilead Sciences, Inc., priority 2019, dated 2022).

Assays:
[1] = test system: HepG2 cells; test: In vitro De Novo Lipogenesis (DNL) assay, 13C-acetate incorporation into palmitic acid; type: cell-based; conditions: Homo sapiens, 1 hour preincubation, 24 hours with 10 mM 13C-labeled acetate
In short: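 HepG2 cells were preincubated with compound for 1 h, then given 10 mM 13C-acetate for 24 h at 37 °C. Lipids were saponified with KOH/ethanol at 70 °C, and palmitate carrying 3–7 13C was quantified by RapidFire-QTOF MS. This signal was normalized to oleate and plotted against compound concentration.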

[2] = Preliminary study of systemic blood clearance after intravenous administration; type: in vivo; conditions: monkeys, preliminary studies

For COc1ccccc1[C@H](Cn1c(=O)n(C(C)(C)C(=O)NS(=O)(=O)C2(C)CC2)c(=O)c2c(C)c(-c3ncco3)sc21)O[C@@H]1C[C@H]2CC[C@@H](C1)O2 [Example 1, 2-(1-((R)-2-(((1R,3s,5S)-8-oxabicyclo[3.2.1]octan-3-yl)oxy)-2-(2-methoxyphenyl)ethyl)-5-methyl-6-(oxazol-2-yl)-2,4-dioxo-1,4-dihydrothieno[2,3-d]pyrimidin-3(2H)-yl)-2-methyl-N-((1-methylcyclopropyl)sulfonyl)propanamide], which EC50 [1] is on record?
The EC50 was 1 nM.

And the systemic blood clearance [2]?
The systemic blood clearance was “higher than hepatic blood flow”.
